The structures appear in SMILES notation.

T1 sequence (P02768 25-609): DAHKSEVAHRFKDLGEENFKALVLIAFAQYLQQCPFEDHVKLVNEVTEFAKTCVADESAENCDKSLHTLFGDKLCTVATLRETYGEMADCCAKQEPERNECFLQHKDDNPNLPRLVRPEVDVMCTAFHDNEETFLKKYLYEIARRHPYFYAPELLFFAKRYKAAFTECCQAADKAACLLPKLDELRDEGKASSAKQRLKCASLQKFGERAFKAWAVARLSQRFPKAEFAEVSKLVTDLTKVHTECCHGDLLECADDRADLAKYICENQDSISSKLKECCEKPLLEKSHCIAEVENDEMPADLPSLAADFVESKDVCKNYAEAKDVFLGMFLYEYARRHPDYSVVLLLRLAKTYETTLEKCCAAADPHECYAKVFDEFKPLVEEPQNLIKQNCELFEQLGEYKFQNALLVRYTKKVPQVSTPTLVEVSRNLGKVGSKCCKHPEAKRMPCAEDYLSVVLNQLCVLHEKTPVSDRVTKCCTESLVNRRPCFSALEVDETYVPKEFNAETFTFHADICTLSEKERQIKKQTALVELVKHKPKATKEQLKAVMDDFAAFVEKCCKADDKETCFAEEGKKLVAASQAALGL

Tested on in one series: not given
Assay: not given
Conditions: human.
On to `Cn1cnc2c1c(=O)[nH]c(=O)n2C` [Theobromine], for which the “reference log Vdss” value is reported as -0.25.

With `C[C@]12C=CC(=O)C=C1CC[C@@H]1[C@@H]2C(=O)C[C@@]2(C)[C@H]1CC[C@]2(O)C(=O)CO` [Prednisone], the “reference log Vdss” value is recorded as 0.05.

Regarding `C[C@H]1C[C@@H]2[C@H]([C@@H](O)C[C@@]3(C)[C@H]2CC[C@]3(O)C(=O)CO)[C@@]2(C)C=CC(=O)C=C12` [Methylprednisolone], the “reference log Vdss” value was 0.16.

For `Cc1cc(C)nc(NS(=O)(=O)c2ccc(N)cc2)n1` [Sulphadimidine], the “reference log Vdss” value came out at 0.22.

As to `CC(C(=O)O)c1ccc(-c2ccccc2)c(F)c1` (stereo not shown) [Flurbiprofen], the “reference log Vdss” value was -1.56.

As for `COc1ccc2c(c1)c(CC(=O)O)c(C)n2C(=O)c1ccc(Cl)cc1` [Indomethacin], the “reference log Vdss” value was -0.96.

With `NC(N)=Nc1nc(CSCCC(N)=NS(N)(=O)=O)cs1` [Famotidine], the “reference log Vdss” value is given as -0.06.

For `Cc1onc(-c2c(F)cccc2Cl)c1C(=O)N[C@@H]1C(=O)N2[C@@H]1SC(C)(C)[C@@H]2C(=O)O` [Floxacillin], the “reference log Vdss” value is listed as -0.56.

Turning to `Cc1c(Cl)cccc1Nc1ccccc1C(=O)O` [Tolfenamic Acid], the “reference log Vdss” value was -0.76.

Turning to `NS(=O)(=O)c1cc2c(cc1Cl)NCNS2(=O)=O` [Hydrochlorothiazide], the “reference log Vdss” value is reported as -0.13.

In the case of `CC(C(=O)O)c1cccc(Oc2ccccc2)c1` (stereo not shown) [Fenoprofen], the “reference log Vdss” value is reported as -1.27.

`O=C1NC(=O)C(c2ccccc2)(c2ccccc2)N1` [Phenytoin]: the “reference log Vdss” value came out at 0.03.

Tested on in a further series: not given
Assay: not given
Conditions: previously published, IAM column manufactured 2004-2012; cited from earlier work.
For the compound `Cc1cc(C)nc(NS(=O)(=O)c2ccc(N)cc2)n1` [Sulphadimidine], the “CHI (IAM)” value is 34.6.

The same series, now with this note: reference CHI (IAM), old columns; cited from earlier work.
Turning to `C[C@H]1C[C@@H]2[C@H]([C@@H](O)C[C@@]3(C)[C@H]2CC[C@]3(O)C(=O)CO)[C@@]2(C)C=CC(=O)C=C12` [Methylprednisolone], the “CHI (IAM) from ref [13]” value was 32.10.

On to `Cc1cc(C)nc(NS(=O)(=O)c2ccc(N)cc2)n1` [Sulphadimidine], for which the “CHI (IAM) from ref [13]” value is 34.55.

Regarding `CC(C(=O)O)c1ccc(-c2ccccc2)c(F)c1` (stereo not shown) [Flurbiprofen], the “CHI (IAM) from ref [13]” value is 26.80.

Regarding `COc1ccc2c(c1)c(CC(=O)O)c(C)n2C(=O)c1ccc(Cl)cc1` [Indomethacin], the “CHI (IAM) from ref [13]” value is 25.30.

With `NC(N)=Nc1nc(CSCCC(N)=NS(N)(=O)=O)cs1` [Famotidine], the “CHI (IAM) from ref [13]” value is reported as 15.70.

Turning to `Cc1onc(-c2c(F)cccc2Cl)c1C(=O)N[C@@H]1C(=O)N2[C@@H]1SC(C)(C)[C@@H]2C(=O)O` [Floxacillin], the “CHI (IAM) from ref [13]” value is listed as 23.40.

Consider `Cc1c(Cl)cccc1Nc1ccccc1C(=O)O` [Tolfenamic Acid], for which the “CHI (IAM) from ref [13]” value was 36.60.

`NS(=O)(=O)c1cc2c(cc1Cl)NCNS2(=O)=O` [Hydrochlorothiazide]: the “CHI (IAM) from ref [13]” value is 15.90.

For `CC(C(=O)O)c1cccc(Oc2ccccc2)c1` (stereo not shown) [Fenoprofen], the “CHI (IAM) from ref [13]” value is 17.20.

Take `O=C1NC(=O)C(c2ccccc2)(c2ccccc2)N1` [Phenytoin]: the “CHI (IAM) from ref [13]” value was 31.60.

The next series concerns the target T1, human serum albumin (HSA) (Homo sapiens, UniProt P02768). Kind of series: Protein binding on chemically bonded HSA column (Chiralpak-HSA). Conditions: remeasured in this study, pH 7.4.
Protocol: Mobile phase A was 50 mM ammonium acetate adjusted to pH 7.4 and mobile phase B was 2-propanol. The flow rate was 1.5 mL/min and the run time was 6 min. The 2-propanol gradient was applied from 0 to 35% from 0 to 3.00 min and kept at 35% until 4.00 min.
Consider `C[C@]12C=CC(=O)C=C1CC[C@@H]1[C@@H]2C(=O)C[C@@]2(C)[C@H]1CC[C@]2(O)C(=O)CO` [Prednisone], for which the “log K HSA” value amounted to 0.42.

On to `C[C@H]1C[C@@H]2[C@H]([C@@H](O)C[C@@]3(C)[C@H]2CC[C@]3(O)C(=O)CO)[C@@]2(C)C=CC(=O)C=C12` [Methylprednisolone], for which the “log K HSA” value worked out at 0.28.

For `Cc1cc(C)nc(NS(=O)(=O)c2ccc(N)cc2)n1` [Sulphadimidine], the “log K HSA” value was 1.72.

As for `CC(C(=O)O)c1ccc(-c2ccccc2)c(F)c1` (stereo not shown) [Flurbiprofen], the “log K HSA” value came to 4.01.

`NC(N)=Nc1nc(CSCCC(N)=NS(N)(=O)=O)cs1` [Famotidine]: the “log K HSA” value was found to be 3.43.

`Cc1onc(-c2c(F)cccc2Cl)c1C(=O)N[C@@H]1C(=O)N2[C@@H]1SC(C)(C)[C@@H]2C(=O)O` [Floxacillin]: the “log K HSA” value is 0.65.

For the compound `Cc1c(Cl)cccc1Nc1ccccc1C(=O)O` [Tolfenamic Acid], the “log K HSA” value is 6.60.

`NS(=O)(=O)c1cc2c(cc1Cl)NCNS2(=O)=O` [Hydrochlorothiazide]: the “log K HSA” value is reported as 1.05.

As to `CC(C(=O)O)c1cccc(Oc2ccccc2)c1` (stereo not shown) [Fenoprofen], the “log K HSA” value was 2.32.

Take `O=C1NC(=O)C(c2ccccc2)(c2ccccc2)N1` [Phenytoin]: the “log K HSA” value is recorded as 0.63.

Tested on in a further series: not listed separately
Kind of series: IAM chromatography on new IAM.PC.DD2 columns (gradient HPLC, CHI (IAM)). The class given is physicochemical. Details: key to CHI (IAM) “new” / P20511-014-3 CHI (IAM): CHI (IAM) from retention times calibrated to predefined CHI standards. The following applies: new IAM.PC.DD2 column batch P20511-014-3, pH 7.4. Here is the method:
The IAM binding was measured using IAM.PC.DD2 HPLC columns (Regis Technologies, Inc., IL, USA) with dimensions of 100 x 4.6 mm, particle size 10 μm with 300 Å pore size.
Two batches of IAM.PC.DD2 columns were studied (R20511-014-3 and P20511-014-3) that had been prepared using the new batches of silica support.
The retention times were standardized using the IAM calibration mixture, containing octanophenone, heptanophenone, hexanophenone, valerophenone, butyrophenone, propiophenone, acetophenone, acetanilide and paracetamol. The retention times of the compounds were plotted against the isocratically determined and predefined CHI (IAM) values listed in Table 1. The slope and intercept of the obtained straight line was used to calculate the CHI IAM values of new compounds.
As to `Cn1cnc2c1c(=O)[nH]c(=O)n2C` [Theobromine], the “P20511-014-3 CHI (IAM)” value is given as -3.71.

As to `C[C@]12C=CC(=O)C=C1CC[C@@H]1[C@@H]2C(=O)C[C@@]2(C)[C@H]1CC[C@]2(O)C(=O)CO` [Prednisone], the “P20511-014-3 CHI (IAM)” value was found to be 25.13.

`C[C@H]1C[C@@H]2[C@H]([C@@H](O)C[C@@]3(C)[C@H]2CC[C@]3(O)C(=O)CO)[C@@]2(C)C=CC(=O)C=C12` [Methylprednisolone]: the “P20511-014-3 CHI (IAM)” value came to 30.77.

Consider `Cc1cc(C)nc(NS(=O)(=O)c2ccc(N)cc2)n1` [Sulphadimidine], for which the “P20511-014-3 CHI (IAM)” value is listed as 11.09.

As for `CC(C(=O)O)c1ccc(-c2ccccc2)c(F)c1` (stereo not shown) [Flurbiprofen], the “P20511-014-3 CHI (IAM)” value turned out to be 30.89.

Consider `COc1ccc2c(c1)c(CC(=O)O)c(C)n2C(=O)c1ccc(Cl)cc1` [Indomethacin], for which the “P20511-014-3 CHI (IAM)” value was determined as 33.16.

As to `NC(N)=Nc1nc(CSCCC(N)=NS(N)(=O)=O)cs1` [Famotidine], the “P20511-014-3 CHI (IAM)” value came out at 16.08.

For the compound `Cc1onc(-c2c(F)cccc2Cl)c1C(=O)N[C@@H]1C(=O)N2[C@@H]1SC(C)(C)[C@@H]2C(=O)O` [Floxacillin], the “P20511-014-3 CHI (IAM)” value is 24.59.

On to `Cc1c(Cl)cccc1Nc1ccccc1C(=O)O` [Tolfenamic Acid], for which the “P20511-014-3 CHI (IAM)” value stood at 41.53.

With `NS(=O)(=O)c1cc2c(cc1Cl)NCNS2(=O)=O` [Hydrochlorothiazide], the “P20511-014-3 CHI (IAM)” value stood at 13.08.

Regarding `CC(C(=O)O)c1cccc(Oc2ccccc2)c1` (stereo not shown) [Fenoprofen], the “P20511-014-3 CHI (IAM)” value is 28.26.

Regarding `O=C1NC(=O)C(c2ccccc2)(c2ccccc2)N1` [Phenytoin], the “P20511-014-3 CHI (IAM)” value is 30.20.

Still in this series, the particulars now being: new IAM.PC.DD2 column batch R20511-014-3, pH 7.4.
Turning to `Cn1cnc2c1c(=O)[nH]c(=O)n2C` [Theobromine], the “R20511-014-3 CHI (IAM)” value is -3.16.

As to `C[C@]12C=CC(=O)C=C1CC[C@@H]1[C@@H]2C(=O)C[C@@]2(C)[C@H]1CC[C@]2(O)C(=O)CO` [Prednisone], the “R20511-014-3 CHI (IAM)” value came out at 25.25.

Consider `C[C@H]1C[C@@H]2[C@H]([C@@H](O)C[C@@]3(C)[C@H]2CC[C@]3(O)C(=O)CO)[C@@]2(C)C=CC(=O)C=C12` [Methylprednisolone], for which the “R20511-014-3 CHI (IAM)” value stood at 30.91.

Take `Cc1cc(C)nc(NS(=O)(=O)c2ccc(N)cc2)n1` [Sulphadimidine]: the “R20511-014-3 CHI (IAM)” value stood at 10.89.

On to `CC(C(=O)O)c1ccc(-c2ccccc2)c(F)c1` (stereo not shown) [Flurbiprofen], for which the “R20511-014-3 CHI (IAM)” value was 30.23.

Consider `COc1ccc2c(c1)c(CC(=O)O)c(C)n2C(=O)c1ccc(Cl)cc1` [Indomethacin], for which the “R20511-014-3 CHI (IAM)” value came to 32.49.

On to `NC(N)=Nc1nc(CSCCC(N)=NS(N)(=O)=O)cs1` [Famotidine], for which the “R20511-014-3 CHI (IAM)” value is reported as 16.82.

`Cc1onc(-c2c(F)cccc2Cl)c1C(=O)N[C@@H]1C(=O)N2[C@@H]1SC(C)(C)[C@@H]2C(=O)O` [Floxacillin]: the “R20511-014-3 CHI (IAM)” value was 23.76.

Regarding `Cc1c(Cl)cccc1Nc1ccccc1C(=O)O` [Tolfenamic Acid], the “R20511-014-3 CHI (IAM)” value is given as 40.72.

Consider `NS(=O)(=O)c1cc2c(cc1Cl)NCNS2(=O)=O` [Hydrochlorothiazide], for which the “R20511-014-3 CHI (IAM)” value is given as 13.04.

For the compound `CC(C(=O)O)c1cccc(Oc2ccccc2)c1` (stereo not shown) [Fenoprofen], the “R20511-014-3 CHI (IAM)” value is given as 27.17.

For the compound `O=C1NC(=O)C(c2ccccc2)(c2ccccc2)N1` [Phenytoin], the “R20511-014-3 CHI (IAM)” value was found to be 30.18.

The series is the same for the next values; noted with them: system suitability test compounds.
In the case of `COc1ccc2c(c1)c(CC(=O)O)c(C)n2C(=O)c1ccc(Cl)cc1` [Indomethacin], the “CHI (IAM) deviation between reference and new IAM.PC.DD2 columns” value is given as “very similar”.

Staying with this series, now noted: system suitability test compounds, new IAM.PC.DD2 columns, pH 7.4.
Take `COc1ccc2c(c1)c(CC(=O)O)c(C)n2C(=O)c1ccc(Cl)cc1` [Indomethacin]: the “CHI (IAM) “new”” value amounted to 30.0.

In another series the target is T1, human serum albumin (HSA).
Assay: not given
Conditions: cited from earlier work.
Take `Cn1cnc2c1c(=O)[nH]c(=O)n2C` [Theobromine]: the “log K HSA from ref [13]” value was 4.68.

`C[C@]12C=CC(=O)C=C1CC[C@@H]1[C@@H]2C(=O)C[C@@]2(C)[C@H]1CC[C@]2(O)C(=O)CO` [Prednisone]: the “log K HSA from ref [13]” value is 0.62.

In the case of `C[C@H]1C[C@@H]2[C@H]([C@@H](O)C[C@@]3(C)[C@H]2CC[C@]3(O)C(=O)CO)[C@@]2(C)C=CC(=O)C=C12` [Methylprednisolone], the “log K HSA from ref [13]” value is listed as 0.76.

For `Cc1cc(C)nc(NS(=O)(=O)c2ccc(N)cc2)n1` [Sulphadimidine], the “log K HSA from ref [13]” value is given as 0.75.

In the case of `CC(C(=O)O)c1ccc(-c2ccccc2)c(F)c1` (stereo not shown) [Flurbiprofen], the “log K HSA from ref [13]” value is 1.26.

In the case of `NC(N)=Nc1nc(CSCCC(N)=NS(N)(=O)=O)cs1` [Famotidine], the “log K HSA from ref [13]” value is recorded as 1.39.

As for `Cc1onc(-c2c(F)cccc2Cl)c1C(=O)N[C@@H]1C(=O)N2[C@@H]1SC(C)(C)[C@@H]2C(=O)O` [Floxacillin], the “log K HSA from ref [13]” value is 0.56.

In the case of `Cc1c(Cl)cccc1Nc1ccccc1C(=O)O` [Tolfenamic Acid], the “log K HSA from ref [13]” value is 2.46.

With `NS(=O)(=O)c1cc2c(cc1Cl)NCNS2(=O)=O` [Hydrochlorothiazide], the “log K HSA from ref [13]” value was 0.92.

Regarding `CC(C(=O)O)c1cccc(Oc2ccccc2)c1` (stereo not shown) [Fenoprofen], the “log K HSA from ref [13]” value is given as 1.58.

`O=C1NC(=O)C(c2ccccc2)(c2ccccc2)N1` [Phenytoin]: the “log K HSA from ref [13]” value is on record as 0.54.

(Values after article PMC8915595, “Revisiting the application of Immobilized Artificial Membrane (IAM) chromatography to estimate in vivo distribution properties of drug discovery compounds based on the model of marketed drugs” (ADMET & DMPK, 2020).)
